According to PMC4601051, “Discovery of Indoline-2-carboxamide Derivatives as a New Class of Brain-Penetrant Inhibitors of Trypanosoma brucei” (Journal of Medicinal Chemistry, 2015):
Converted amounts (≈) assume the structure as drawn. “And” between values parts separate entries of the source, which are not always exact repeats. Identical values can stand only once. Like-named read-outs stand apart in the source and are kept apart here.

Experiments:
T. b. brucei GVR35 = conditions: 12.5 mg/kg IP b.i.d. for 5 d from 21 d post infection, majority of mice
Protocol: For stage 2 of infection, the standard model is T. b. brucei GVR35 in which CNS infection is allowed to develop in female NMRI mice before treatment starts, requiring about 21 d.
These were carried out as previously described[27],[32] at the dose level presented and using the same dose formulation as the pharmacokinetic studies. HRN mice were used under the same infection and monitoring protocol as described for female NMRI mice.

[1] = tested on: bloodstream form T. brucei brucei; assay: T. b. brucei whole cell parasite (trypanosome growth) assay; format: cell-based, Trypanosoma brucei brucei
Protocol: This was conducted as previously described.[27] Cell culture plates were stamped with 1 μL of an appropriate stock concentration of test compound, followed by addition of 200 μL of trypanosome culture (HMI9-T, 10% FCS) to each well at a density of 2000 cells per well (except column 12 receiving media only). […] Potency was carried out using 10-point dose–response curves.

[2] = Brain tissue binding by equilibrium dialysis; format: in vitro ADME; conditions: Sprague-Dawley, brain homogenate; rat (male SD rat); read-out: brain tissue binding (rat), Fu
Protocol: In brief, a 96-well equilibrium dialysis apparatus was used to determine the free fraction in the brain for the test compound (HT Dialysis LLC, Gales Ferry, CT). Membranes (12–14 kDa A cutoff) were conditioned in deionized water for 60 min, followed by conditioning in 80:20 deionized water:ethanol for 20 min and then rinsed in artificial cerebrospinal fluid (CSF) before use. Mouse brain was removed from the freezer and allowed to thaw on the day of experiment. […] Diluted brain homogenate was spiked with the test compound (10 ug/g), and 150 μL aliquots (n = 6 replicate determinations) loaded into the 96-well equilibrium dialysis plate. Dialysis vs artificial CSF (150 μL) was carried out for 5 h in a temperature controlled incubator at ca. 37 °C (Stuart scientific Ltd., UK) using an orbital microplate shaker at 125 rpm (Stuart scientific Ltd., UK). […] All samples were analyzed by means of UPLC/MS/MS on a Quattro Premier XE mass spectrometer (Waters Corporation, USA). The unbound fraction was determined as the ratio of the peak area in artificial CSF to that in brain, with correction for dilution factor according to eq 1.[42] […] 1 where D = dilution factor in brain homogenate and Fu,apparent is the measured free fraction of diluted brain homogenate.

[3] = Maximum tolerated dose (MTD) studies
[4] = Microsomal intrinsic clearance (Clint), mouse; format: in vitro ADME; conditions: mouse liver microsomes, 0.5 μM compound
Protocol: Each test compound (0.5 μM) was incubated with pooled female CDI mouse liver microsomes, pooled male Sprague–Dawley rat microsomes, or pooled mixed gender human liver microsomes (Tebu-Bio, UK; 0.5 mg/mL 50 mM potassium phosphate buffer, pH 7.4) and the reaction started with addition of excess NADPH (8 mg/mL, 50 mM potassium phosphate buffer, pH 7.4). Immediately, at time zero, then at 3, 6, 9, 15, and 30 min, an aliquot (50 μL) of the incubation mixture was removed and mixed with acetonitrile (100 μL) to stop the reaction. Internal standard was added to all samples, and the samples were centrifuged at 1825g for 10 min to sediment precipitated protein. The plates were then sealed prior to UPLC/MS/MS analysis using a Quattro Premier XE (Waters Corporation, USA).
XLfit (IDBS, UK) was used to calculate the exponential decay and consequently the rate constant (k) from the ratio of peak area of test compound to internal standard at each time point.

[5] = Aqueous kinetic solubility by laser nephelometry; format: physicochemical; conditions: aqueous medium, Table 7
Protocol: The software package StarDrop by Optibrium was used to calculate physicochemical parameters including log P, molecular weight, and polar surface area (PSA). The aqueous kinetic solubility of the compounds was measured using laser nephelometry as previously described.[40] The plasma protein binding of the compounds was determined by the equilibrium dialysis method.[12]

[6] = Mouse brain penetration (brain:blood ratio); conditions: in vivo, dosed intravenously at 0.5 or 1 mg/kg, levels measured after 5 min, female NMRI mice, read-out: B:B (brain to blood ratio)
Protocol: Each compound was dosed as a bolus solution intravenously at 0.5 or 1 mg free base/kg (dose volume, 5 mL/kg; dose vehicle, 10% DMSO; 40% PEG400; 50% Milli-Q water) to female NMRI mice (n = 6). At 5 and 30 min following intravenous bolus injection of test compound, mice (n = 3/time point) were placed under terminal anesthesia with isofluorane. A blood sample was taken by cardiac puncture and mixed with two volumes of distilled water, the mice decapitated, and the brain removed. Diluted blood and brains were stored frozen until preparation and analysis by UPLC/MS/MS. For each mouse at each time point, the concentration in brain (ng/g) was divided by the concentration in blood (ng/mL) to give a brain:blood ratio. The mean value obtained was quoted.

[7] = In vivo mouse pharmacokinetics; conditions: for Cmax / Tmax / half-life / AUC(0-t) at 8 h / AUC(0-t): female, mouse, in vivo, 10 mg/kg, NMRI mice; for AUC(0-t) at 8 h: read-out: AUC0–8; for AUC(0-t): read-out: AUC0–8 (converted)
Protocol: Each compound was dosed as a bolus solution intraperitoneally at 10 mg free base/kg (dose volume, 10 mL/kg; dose vehicles used, 10% DMSO; 40% PEG400; 50% Milli-Q water or 5% DMSO; 40% PEG400; 55% saline) to female HRN (1 only) or NMRI mice (n = 3) or dosed orally by gavage as a solution at 10 mg free base/kg (dose volume, 10 mL/kg; dose vehicle, 10% DMSO; 40% PEG400; 50% Milli-Q water) to female NMRI mice (n = 3). Female NMRI mice were chosen, as these represent the sex and strain used for the stage 1 and stage 2 HAT efficacy models. Blood samples were taken from each mouse at 5 (IP only), 15, and 30 min, 1, 2, 4, 6, and 8 h post dose, mixed with two volumes of distilled water, and stored frozen until UPLC/MS/MS analysis. Pharmacokinetic parameters were derived from noncompartmental analysis of the blood concentration time curve using PK solutions software v 2.0 (Summit Research Services, USA).

Compound: CNC(=O)[C@H]1Cc2ccccc2N1C(=O)Cc1ccc(F)cc1 [Compound 47, (R)-1-(2-(4-Fluorophenyl)acetyl)-N-methylindoline-2-carboxamide]
- relapse with parasitaemia later than vehicle dosed infected mice (T. b. brucei GVR35): 6 to 13 days
- Hill slope ([1]; T. brucei EC50 curve): 2.8
- EC50 ([1]; Trypanosoma brucei, mean of two or more determinations, 69 h + 4 h resazurin, read-out: T. b. brucei EC50): 50 nM
- fraction unbound at 5 h, 10 ug/g [2]: 0.43
- tolerability ([3]; 15 mg/kg IP b.i.d., female NMRI mice (47: for 3 days)): well tolerated
- tolerability ([3]; 25 mg/kg after a single dose, female NMRI mice): clinical signs of toxicity
- mouse microsomal intrinsic clearance [4]: 1.9 mL min^–1 g^–1 and 1.9/ND mL min^–1 g^–1
- solubility [5]: 64 µg/mL (≈ 205 µM)
- Kp at 5 min [6]: 0.9
- higher AUC compared to 1 ([7]; IP, female NMRI mice): 1.5–6.5 fold
- Cmax ([7]; IP): 2300 ng/mL and 7.4 µM
- Tmax ([7]; IP): 15 min
- half-life ([7]; IP): 30 min
- AUC(0-t) at 8 h ([7]; IP): 9.1 µM·h
- AUC(0-t) ([7]; IP): 2830 ng·h/mL
- Cmax ([7]; PO): 750 ng/mL and 2.4 µM
- Tmax ([7]; PO): 30 min
- half-life ([7]; PO): 36 min
- AUC(0-t) at 8 h ([7]; PO): 3.3 µM·h
- AUC(0-t) ([7]; PO): 1020 ng·h/mL
